Results taken from PubChem BioAssay (NCI).
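Briefly, cells in 96-well plates were exposed to five compound concentrations for 48 h, and endpoints were estimated by linear interpolation. TGI: total growth inhibition.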 Where a SMILES comes first, the peptide text is derived from it. The star is where a group is joined. Boc = CC(C)(C)OC(=O)*; OBn = c1ccc(CO*)cc1

Columns and labels:
Test in all cases: NCI tumour cell line growth inhibition, 48 h
[1] = tested on: NCI-H23 lung
[2] = tested on: NCI/ADR-RES ovarian
[3] = tested on: SK-MEL-2 melanoma
[4] = tested on: MALME-3M melanoma
[5] = tested on: MDA-MB-435
[6] = tested on: UACC-257 melanoma
[7] = tested on: NCI-H522 lung
[8] = tested on: OVCAR-8 ovarian
[9] = tested on: U251 CNS
[10] = tested on: EKVX NSCLC

Row | SMILES | TGI [1] [µM] | TGI [2] [µM] | TGI [3] [µM] | TGI [4] [µM] | TGI [5] [µM] | TGI [6] [µM] | TGI [7] [µM] | TGI [8] [µM] | TGI [9] [µM] | TGI [10] [µM]
1 | NC(CCC(=O)O)(CCC(=O)O)CCC(=O)O | > 100 | > 100 | > 100 | > 100 | > 100 | > 100 | > 100 | > 100 | > 100 | > 100
2 | COc1cccc(C2SCC(=O)N2c2ccc(-n3c(-c4ccccc4)nc4ccccc4c3=O)cc2)c1OC (centres undefined) | > 100 | > 100 | > 100 | > 100 | > 100 | > 100 | > 100 | > 100 | > 100 | > 100
3 | CCOC(=O)/C=C(\C(=O)OCC)n1ccc(=O)n(CC(=O)OCC)c1=O | 28.1 | 60.8 | 29.1 | 5.41 | 16.4 | 24.2 | 3.25 | 14.3 | 19.5 | 35.5
4 | COc1ccc(-c2cc(=O)c3cc4c(cc3[nH]2)OCO4)cc1 | > 100 |  | > 100 | > 100 |  | > 100 |  | > 100 | > 100 | 41.3
5 | c1ccc2c(c1)nc1n2C2CCC(C2)N1 (centres undefined) | > 10 | > 10 | > 10 | > 10 | > 10 | > 10 | > 10 | > 10 | > 10 | > 10
6 | Cc1n[nH]c(=O)n1/N=C\CC/C=N\n1c(C)n[nH]c1=O | > 100 | > 100 | > 100 | > 100 | > 100 | > 100 | > 100 | > 100 | > 100 | > 100
7 | COc1cccc2nc3cc(C)c(C)cc3nc12 | > 100 |  | > 100 | > 100 |  | > 100 | > 100 | > 100 | > 100 | > 100
8 | Cc1ccc(-c2c(C#N)c(N)nc3c2CCS(=O)(=O)c2ccccc2-3)cc1 | > 100 | > 100 | > 100 | > 100 | > 100 | > 100 | > 100 | > 100 | > 100 | 
9 | O=C(NCCc1ccccc1)c1c(O)c2ccccc2[nH]c1=O | > 100 | > 100 |  | > 100 | > 100 | > 100 | > 100 | > 100 | > 100 | > 100
10 | Oc1ccc(/C=C/c2ccc3cccc(O)c3n2)cc1O |  | 2.56 | 36 |  | > 100 | 47.3 |  | > 100 | 20.6 | 30.8
11 | CC(=O)O[C@H]1CCn2c3c(c(C)c21)C(=O)C(N1CC1)=C(C)C3=O | > 10 | > 10 | > 10 | > 10 | > 10 | > 10 | > 10 | > 10 | > 10 | > 10
12 | COc1ccc(C2(O)c3ccccc3C(=O)N(C)C2(O)c2ccc(OC)cc2)cc1 (centres undefined) | > 100 | > 100 | > 100 | > 100 | 42.2 | > 100 | 74.9 | > 100 | > 100 | > 100
13 | Nc1ncnc2c1cnn2Cc1cn(COCC(O)CO)nn1 (centres undefined) | > 100 | > 100 | > 100 |  | > 100 | > 100 | 30.8 | > 100 | > 100 | > 100
14 | NNCCc1n[nH]c(=O)n1N | > 100 | > 100 |  | > 100 | > 100 | > 100 | > 100 | > 100 | > 100 | > 100
15 | CC(NC(=O)C(Cc1ccccc1)NC(=O)C(Cc1ccccc1)NC(=O)OC(C)(C)C)C(=O)OCc1ccccc1 (stereo not drawn) (Boc-Phe-Phe-Ala-OBn; configuration not given here) | > 100 | > 100 | > 100 | > 100 | > 100 | > 100 | > 100 | > 100 | > 100 | > 100
16 | C=CCCCC1CCCNC1=S (centres undefined) | > 100 |  | > 100 |  | > 100 | > 100 | > 100 | > 100 | > 100 | > 100
17 | O=C1CCCCC/C1=C\c1ccc(Cl)cc1 | > 100 |  | > 100 | > 100 | 58.2 | > 100 | 73 |  | > 100 | > 100
18 | c1ccc2cc(CNCCOCCOCCNCc3ccc4ccccc4c3)ccc2c1 | 4 |  | 3.65 | 3.9 | 3.81 | 2.96 | 3.44 | 3.77 | 4.07 | 6.13
19 | NC(=O)NC(=O)c1cccc(NC(=O)CF)c1 | > 100 | > 100 | > 100 | > 100 | > 100 | > 100 | > 100 | > 100 | > 100 | > 100
20 | CC(C)(C)[Si](C)(C)OCCOCn1cc(F)c(=O)[nH]c1=O | > 100 | > 100 | > 100 | > 100 | > 100 | > 100 | > 100 | > 100 | > 100 | > 100
21 | CC(C)CC(NC(=O)C(CCI)Cc1ccccc1)C(=O)Nc1ccccc1 (centres undefined) | > 100 | > 100 | > 100 | > 100 | > 100 | > 100 | 78.1 | > 100 | > 100 | > 100
22 | Cc1ccc2c(c1)-c1c(C#N)c(N)nc(-c3ccccc3)c1CCS2(=O)=O | > 62.7 | > 46.5 | > 100 | > 100 | > 36.5 | > 100 | 4.58 | > 95.5 | > 90.7 | > 100
23 | CC(C)C12C=CC(C)(CC1)n1c(=O)c3cc4ccccc4cc3c(=O)n12 (centres undefined) | > 100 |  | > 100 | > 100 |  | > 100 | 83.7 | > 100 | > 100 | > 100

Row | SMILES | TGI [1] [µM] | TGI [2] [µM] | TGI [3] [µM] | TGI [4] [µM] | TGI [5] [µM] | TGI [6] [µM] | TGI [7] [µM] | TGI [8] [µM] | TGI [9] [µM] | TGI [10] [µM]
24 | CC(C)C1COC(c2cccc(C3=N[C@@H](C(C)C)CO3)n2)=N1 (some centres undefined) | > 100 |  | > 100 | > 100 |  |  | > 100 |  | > 100 | > 100
25 | CC12c3c4cc(Br)cc3Oc3cc(Br)cc(c31)Oc1cc(Br)cc(c12)O4 | > 100 | 58.5 | 67.8 | 37.5 | > 100 | > 100 |  | > 100 | > 100 | 82.6
26 | O=c1c2cn[nH]c2nc2scc(-c3ccc(Cl)cc3)n12 | > 100 | > 100 | > 100 | > 100 | > 100 | > 100 | > 100 | > 100 | > 100 | > 100
27 | CC(C)CCc1n[nH]c(=O)n1/N=C\c1ccccc1 | > 100 | > 100 | > 100 | > 100 | > 100 | > 100 | > 100 | > 100 | > 100 | > 100
28 | O=C(Cc1ccccc1)NCCCN(CCCCN(CCCNC(=O)Cc1ccccc1)C(=O)OCc1ccccc1)C(=O)OCc1ccccc1 | > 100 | > 100 | > 100 |  | > 100 | > 100 | 12.2 | > 100 | > 100 | > 100
29 | CCC(=O)N(O)C(C)(C)C | > 100 |  |  | > 100 |  | > 100 | > 100 | > 100 | > 100 | 
30 | CC1=N[C@](C)(C2CC3C=CC2C3=O)COC1=O (some centres undefined) | > 100 |  |  | > 100 | > 100 | > 100 | > 100 | > 100 | > 100 | > 100
31 | O=C(Cc1ccccc1)NNc1nc(NNC(=O)c2ccncc2)nc(Nc2cccc(Cl)c2)n1 | > 10 | > 10 |  | > 10 |  | > 10 |  | > 10 | > 10 | > 10
32 | CN(C)CCn1c(=O)c2ccc3c4c(nn3CCN(C)C)c3cc(O)ccc3n(c1=O)c24 | 0.701 | 6.82 | 0.576 | 0.982 | 0.641 | 1.16 | 0.0292 | 0.124 |  | 0.366
33 | O=C1Nc2ccccc2/C1=C/c1c(Cl)[nH]c2ccc(O)cc12 | 13.8 |  | 12.7 | 15.7 | 0.947 | 22.6 | 6.74 | 12.8 | 14.5 | 22.5
34 | O=C(/C=C/c1ccc(Cl)cc1)c1cccs1 |  | 74.4 | > 100 | 36.7 | 25.9 | 37.4 |  | 56.2 | 29.5 | 68
35 | NC(CCCCNC(=O)CNC(=O)OCc1ccccc1)C(=O)NC(CCCCNC(=O)CNC(=O)OCc1ccccc1)C(=O)NC(CCCCNC(=O)CNC(=O)OCc1ccccc1)C(=O)NC(CCCCNC(=O)CNC(=O)OCc1ccccc1)C(=O)NC(CCCCNC(=O)CNC(=O)OCc1ccccc1)C(=O)NC(CCCCNC(=O)CNC(=O)OCc1ccccc1)C(=O)O (centres undefined) | > 75 |  | > 75 | > 75 | > 75 | > 75 | > 75 | > 75 | > 75 | 
36 | CCOc1ccc(NCC2CC/C(=C\c3ccc(O)cc3)C2=O)cc1 (centres undefined) | 50.4 | 36.9 |  | 28.5 | 35.8 | 30.7 | 11.7 | 34.4 | 30.7 | 39.5
37 | Cc1ccc2c(C)c3ccc4ccccc4c3c[n+]2c1 | 38.6 |  | 29.5 | 9.74 |  | 33.7 | 28.3 | 36.9 | 23 | > 100
38 | c1ccc(C2OCCO2)c(OCCOc2cc(OCCOc3ccccc3C3OCCO3)c(OCCOc3ccccc3C3OCCO3)cc2OCCOc2ccccc2C2OCCO2)c1 | 27.3 |  | 47.9 | > 100 |  | > 100 |  | > 100 | 23.9 | 
39 | Cc1ccc(S(=O)(=O)Nn2c(S)c(C#N)c(-c3ccc([N+](=O)[O-])cc3)c(C#N)c2=O)cc1 |  | > 100 | 80.1 | > 100 | 53.9 | > 100 | 30.2 | > 100 | 98 | > 100
40 | CC(C)/C(Cl)=N\OC(=O)Nc1ccc(F)cc1F | 30.1 | 21.2 | 28.2 | 3.58 |  | 27.7 |  | 31.6 | 32.8 | 13.8
41 | COC(=O)C1(Cc2ccc3c(c2)CCC3)Cc2ccc3c(c2C1)CCC3 (centres undefined) | 4.63 | 72.8 |  | 42 | 39 | 30.3 | 45.1 | > 100 | 37.1 | > 100
42 | COC(=O)C1CCC(=O)N1C(c1ccccc1)c1cc(OC)c(OC)c(OC)c1 (centres undefined) | > 100 | > 100 |  | > 100 | 59.7 | > 100 | > 100 | > 100 | > 100 | > 100
43 | O=C(CNC(=O)OCc1ccccc1)NCCCCC(NC(=O)OCc1ccccc1)C(=O)NC(CCCCNC(=O)CNC(=O)OCc1ccccc1)C(=O)OCc1ccccc1 (centres undefined) | > 62.5 |  | > 62.5 | > 62.5 | > 62.5 | > 62.5 | > 62.5 | > 62.5 | > 62.5 | 
44 | CC(=O)N1N(c2ccc([N+](=O)[O-])cc2)C(=O)C1(C)C | 37.8 | 89.9 | 37.4 | 56 | 63.1 |  | 27.2 | 59 | 52.8 | 34.5
45 | C/C(=N\NC(=S)Nc1ccc(C)cc1)c1nc2ncccc2[nH]1 | 19.8 | > 100 | 25.4 | 37.5 | 13.3 | 9.48 |  | 12.3 | 15.4 | 7.27
